Experimental data taken from article PMC10855164, “Ligand-Based Design of Selective Peptidomimetic uPA and TMPRSS2 Inhibitors with Arg Bioisosteres” (International Journal of Molecular Sciences, 2024).

How the values were obtained:
[1] = biological target: T1, uPA (Homo sapiens, UniProt P00749); test: fluorometric enzyme inhibition assay, uPA (Z-Gly-Gly-Arg-AMC); type: biochemical; conditions: for Ki: from IC50 by Cheng-Prusoff, n.a. = not active, <80% inhibition at 20 µM
T1 construct: purchased Sigma Aldrich
Protocol: (§1) The inhibitory activity of the synthesized compounds towards the respective main- and off-target proteases was measured via fluorometric and colorimetric assays. Thus, fluorogenic AMC- or colorimetric pNA-based substrates with a peptide sequence suitable for the tested protease were utilized (see Supplementary Figure S2). At first, the compounds were screened against […] proteases (uPA, TMPRSS2, matriptase, tPA, thrombin, factor Xa) at 20 µM, and a cut-off value of 80% inhibition at this concentration was set, for the differentiation between nonactive (n.a.) and active inhibitors. Due to the reversible inhibition mechanism of the ketobenzothiazole derivates, the IC50 values were determined with Graphpad Prism 9, and afterwards converted to the corresponding Ki values for an adequate comparison between the inhibitory activities of the compounds toward all tested proteases. The Ki values were calculated using the Cheng–Prusoff equation [43].
(§2) Fluorometric inhibition assays
(§3) The inhibitory activities of the compounds against the proteases were determined by enzyme inhibition assays with fluorogenic or colorimetry-based substrates. The fluorescence, caused by cleaved AMC from the fluorogenic substrates (uPA, matriptase, TMPRSS2, thrombin), was measured in white flat-bottom 96-well plates from Greiner Bio-One using a Tecan Infinite F200 Pro plate reader. The absorption, caused by cleaved pNA from colorimetric substrates (factor Xa and tPA), was measured in transparent flat-bottom 96-well plates from Greiner Bio-One using a Tecan Spark 10M plate reader. All measurements with the main-target proteases (uPA and TMRPSS2) were performed as triplicates and with the off-target proteases (matriptase, factor Xa, tPA, thrombin) as duplicates. The substrates and the compounds were prepared as stock solutions in DMSO. Each well contained a total volume of 200 µL, consisting of 185 µL buffer, 5 µL inhibitor in DMSO or pure DMSO as negative control, 5 µL substrate in DMSO and 5 µL enzyme solution in buffer. Dilution series were prepared for the determination of the inhibition constants. The fluorescence signal and absorbance were measured every 30 s for 10 min at 25 or 37 °C with the corresponding excitation/emission (λex = 380 nm / λem = 460 nm) and absorbance (λabs = 405 nm) wavelengths, depending on the targeted protease. IC50 values for the reversible inhibitors were calculated with Graphpad Prism 9 by fitting the remaining enzymatic activity to the four parameter IC50 equation with Y [%] as the residual enzyme activity , Ymax as the maximum value of the dose response curve at inhibitor concentrations [I] = 0 µM, Ymin as the minimum value at high inhibitor concentrations and s as the hill coefficient.[1] The fluorescence progress curves and sigmoidal dose-response curve for inhibition of uPa by compound 38 is shown exemplary in Figure S2.
Figure S2: (left) Fluorescence progress curves for inhibition of uPa by cpd. 38. (right) Plot showing the respective IC50 value […]
(§4) Due to the dependence of the IC50 value on the substrate affinity and concentration, the Ki values were calculated with the Cheng-Prusoff equation, using the final substrate concentration [S] and the Michaelis-Menten constant KM, (2) for appropriate comparison of the inhibitory activities to the other enzymes and inhibitors.[1]
(§5) KM values were determined by fitting to the Michaelis-Menten equation using Graphpad Prism 9 with v [ΔF/min] as the substrate hydrolysis rate, vmax as the maximum slope of the dose-response curve, and the substrate [S] concentration.[1] The different substrates were serially diluted in DMSO. The measurement was done in analogy to the determination of the inhibitory activity, but with 5 µL pure DMSO instead of inhibitor solution. The fluorescence progress curves and Michaelis-Menten curve of the specific substrate of uPA is shown exemplarily […]
Figure S3: (left) Fluorescence progress curves of cleavage of Z-Gly-Gly-Arg-AMC by uPA. (right) Michaelis-Menten curve […]

[2] = biological target: T2, matriptase (Homo sapiens, UniProt Q9Y5Y6); test: fluorometric enzyme inhibition assay, matriptase (Boc-Leu-Arg-Arg-AMC); type: biochemical; conditions: for Ki: from IC50 by Cheng-Prusoff, n.a. = not active, <80% inhibition at 20 µM
T2 construct: catalytic domain of matriptase (uniport: Q9Y5Y6 aa 596–855); hexa-histidine (N); made in house; host or cells: Escherichia coli BL21 Gold (DE3)
T2 sequence (Q9Y5Y6 596-855): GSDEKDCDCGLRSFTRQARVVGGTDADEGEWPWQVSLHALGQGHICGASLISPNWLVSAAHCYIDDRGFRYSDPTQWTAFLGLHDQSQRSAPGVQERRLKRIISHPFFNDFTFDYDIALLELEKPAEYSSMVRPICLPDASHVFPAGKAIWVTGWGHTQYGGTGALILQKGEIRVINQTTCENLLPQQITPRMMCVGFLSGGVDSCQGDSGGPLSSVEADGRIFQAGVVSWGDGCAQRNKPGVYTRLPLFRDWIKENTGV
Protocol: as §1, §2
as §3, with “S2. […]” for “S2.”
as §4
as §5, with “solution.” for “solution. The fluorescence progress curves and Michaelis-Menten curve of the specific substrate of uPA is shown exemplarily”
The following buffers and substrates were used for the respective assays: uPA (50 mM Tris HCl pH = 7.9, 150 mM […]
TMPRSS2 (25 mM Tris HCl pH = 8.0, 150 mM NaCl, 5 mM CaCl2, 0.001% TX-100, 100 µM Boc-Gln-Ala-Arg-AMC (KM: 68.63 ± 6.64 µM), 25 °C, 3 nM TMPRSS2)[3]; matriptase (50 mM Tris HCl pH = 8.0, 150 mM NaCl, 5 mM CaCl2, […]

Row | Compound | Ki [1] [nM] | Selectivity index [SI] uPA ([1]; quotient Ki uPA / Ki TMPRSS2) | Ki [2] [nM] | Selectivity index [SI] Matriptase ([2]; quotient Ki matriptase / Ki TMPRSS2) | Selectivity index [SI] Matriptase ([2]; quotient Ki matriptase / Ki uPA)
1 | CC(=O)N[C@@H](Cc1ccccc1)C(=O)N[C@@H](Cc1ccc(NC(=N)N)cc1)C(=O)c1nc2ccccc2s1 [Compound 33] | 5260 ± 922 | 1052 | 1440 ± 90 | 289 | 
2 | CC(=O)NCC(=O)NC(C(=O)NC(C)C(=O)NC(CC1CCC(NC(=N)N)CC1)C(=O)c1nc2ccccc2s1)C(C)O (stereo not shown) [Compound 38] | 39 ± 5 |  | 626 ± 74 |  | 16
